Laboratory results reported in paper PMC9297976 (Journal of Applied Toxicology, 2021).

What was measured:
medaka ARβ (mArβ) [1] = target: T1, medaka ARβ (mArβ) (Oryzias latipes, UniProt D1MV73); test: Medaka ARβ reporter gene assay, antagonist assay; format: cell-based, Japanese medaka (Oryzias latipes)
T1 sequence (D1MV73 1-744): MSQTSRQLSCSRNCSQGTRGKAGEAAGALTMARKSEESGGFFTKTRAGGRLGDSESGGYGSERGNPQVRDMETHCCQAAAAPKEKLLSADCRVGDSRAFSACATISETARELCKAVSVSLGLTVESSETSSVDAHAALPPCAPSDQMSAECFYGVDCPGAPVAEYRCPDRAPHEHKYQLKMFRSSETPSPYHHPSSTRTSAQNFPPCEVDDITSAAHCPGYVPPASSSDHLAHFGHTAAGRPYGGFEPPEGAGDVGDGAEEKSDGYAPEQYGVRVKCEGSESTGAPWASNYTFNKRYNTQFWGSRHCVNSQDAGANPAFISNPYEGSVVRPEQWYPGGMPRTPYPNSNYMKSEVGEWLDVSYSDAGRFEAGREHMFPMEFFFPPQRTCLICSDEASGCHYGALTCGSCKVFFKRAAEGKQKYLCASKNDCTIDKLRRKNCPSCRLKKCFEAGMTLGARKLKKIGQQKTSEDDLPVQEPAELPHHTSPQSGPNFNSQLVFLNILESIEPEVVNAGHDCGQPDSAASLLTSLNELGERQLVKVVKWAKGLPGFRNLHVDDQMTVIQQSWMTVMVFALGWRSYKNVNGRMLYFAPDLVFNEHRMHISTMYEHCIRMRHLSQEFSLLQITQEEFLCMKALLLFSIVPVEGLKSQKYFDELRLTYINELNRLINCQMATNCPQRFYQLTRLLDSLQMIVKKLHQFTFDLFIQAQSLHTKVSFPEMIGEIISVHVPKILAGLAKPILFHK

medaka Esr1 (mEsr1) [2] = target: T2, medaka Esr1 (mEsr1) (Oryzias latipes, UniProt P50241); test: cell-based; parameters: species or system Japanese medaka (Oryzias latipes)
T2 sequence (P50241 1-620): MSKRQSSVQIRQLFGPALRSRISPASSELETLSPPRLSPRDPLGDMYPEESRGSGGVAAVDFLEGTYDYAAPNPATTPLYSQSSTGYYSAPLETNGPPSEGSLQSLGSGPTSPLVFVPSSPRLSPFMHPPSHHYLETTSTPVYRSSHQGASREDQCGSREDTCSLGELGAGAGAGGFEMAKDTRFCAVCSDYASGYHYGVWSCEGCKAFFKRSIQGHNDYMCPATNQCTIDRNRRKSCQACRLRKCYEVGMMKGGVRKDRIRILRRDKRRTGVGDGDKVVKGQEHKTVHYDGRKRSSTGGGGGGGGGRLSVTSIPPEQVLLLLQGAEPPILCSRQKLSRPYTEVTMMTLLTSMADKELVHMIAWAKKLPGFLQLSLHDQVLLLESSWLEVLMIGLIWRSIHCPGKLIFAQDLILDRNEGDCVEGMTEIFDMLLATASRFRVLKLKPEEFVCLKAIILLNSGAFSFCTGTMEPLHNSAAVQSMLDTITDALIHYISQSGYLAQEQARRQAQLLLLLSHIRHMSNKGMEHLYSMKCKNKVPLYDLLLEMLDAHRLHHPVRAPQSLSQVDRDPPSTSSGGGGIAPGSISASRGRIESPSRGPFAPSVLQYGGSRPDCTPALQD

medaka Esr1 (mEsr1) [3] = target: T2, medaka Esr1 (mEsr1); test: Medaka Esr1 reporter gene assay, antagonist assay; format: cell-based, Japanese medaka (Oryzias latipes); settings: E2 spiked at 1.0 nM (B); MAC = 1.0 × 10^−4 M
[4] = tested on: Japanese medaka (Oryzias latipes); test: Fish Short‐Term Reproduction Assay; format: in vivo; settings: for GSI Female / GSI Male / HSI Female / HSI Male / Length Female / Length Male / Weight Female / Weight Male: completion of exposure
medaka ARβ (mArβ) [5] = target: T1, medaka ARβ (mArβ); test: Medaka ARβ reporter gene assay, agonist assay; format: cell-based, Japanese medaka (Oryzias latipes)
[6] = measured concentration 0.0943 mg/L
[7] = measured concentration 0.939 mg/L
[8] = measured concentration 9.53 mg/L

O=C(c1ccc(O)cc1O)c1ccc(O)cc1O [BP2, Benzophenone‐2]
In vitro positive: aAr (medaka ARβ (mArβ) [1]; mode of action in which IC50 or IC30 was obtained in RGA): aAr | IC50 (medaka ARβ (mArβ) [1]; read-out: Antagonistic activity IC50, 11‐KT spiked at 50 nM (D)): 40 µM | Antagonistic activity on mArβ (in words) (medaka ARβ (mArβ) [1]; transcriptional activity on mArβ by 11KT): inhibitory potency | In vitro positive: Esr (medaka Esr1 (mEsr1) [2]; mode of action in which EC50 or PC10 was obtained in RGA): Esr | EC50 (medaka Esr1 (mEsr1) [2]; read-out: Agonistic activity EC50, HEK293 cells): 1.6 µM | Antagonistic activity (medaka Esr1 (mEsr1) [3]): NE (MAC = 1.0 × 10^−4 M)^(B) | Fertility rate ([4]; 0.0943 mg/L measured, 21 d): 95 ± 2.3% | Hepatic VTG, female ([4]; 0.0943 mg/L measured, 21 d): 354 ± 105 ng/mg‐liver | Hepatic VTG, male ([4]; 0.0943 mg/L measured, 21 d): 0.5 ± 0.0 ng/mg‐liver | Mortality ([4]; 0.0943 mg/L measured, 21 d): 0.0% | Mortality, number of dead fish ([4]; 0.0943 mg/L measured, 21 d): 0 | Number of fertilized eggs (per female per day) ([4]; 0.0943 mg/L measured, 21 d): 15 ± 2.2 | Number of total eggs (per female per day) ([4]; 0.0943 mg/L measured, 21 d): 15 ± 2.3 | SSC female (joint plates with papillary processes) ([4]; 0.0943 mg/L measured, 21 d): 0 ± 0 | SSC male (joint plates with papillary processes) ([4]; 0.0943 mg/L measured, 21 d): 73 ± 7.0 | Fertility rate ([4]; 0.939 mg/L measured, 21 d): 94 ± 2.5% | Hepatic VTG, female ([4]; 0.939 mg/L measured, 21 d): 398 ± 230 ng/mg‐liver | Hepatic VTG, male ([4]; 0.939 mg/L measured, 21 d): 0.9 ± 0.5 ng/mg‐liver | Mortality ([4]; 0.939 mg/L measured, 21 d): 4.2% | Mortality, number of dead fish ([4]; 0.939 mg/L measured, 21 d): 1 | Number of fertilized eggs (per female per day) ([4]; 0.939 mg/L measured, 21 d): 14 ± 2.3 | Number of total eggs (per female per day) ([4]; 0.939 mg/L measured, 21 d): 15 ± 2.7 | SSC female (joint plates with papillary processes) ([4]; 0.939 mg/L measured, 21 d): 0 ± 0 | SSC male (joint plates with papillary processes) ([4]; 0.939 mg/L measured, 21 d): 77 ± 20 | Hepatic VTG, female ([4]; 9.53 mg/L measured, 21 d): 449 ± 114 ng/mg‐liver | Mortality ([4]; 9.53 mg/L measured, 21 d): 0.0% | Mortality, number of dead fish ([4]; 9.53 mg/L measured, 21 d): 0 | Number of fertilized eggs (per female per day) ([4]; 9.53 mg/L measured, 21 d): 13 ± 1.7 | Number of total eggs (per female per day) ([4]; 9.53 mg/L measured, 21 d): 14 ± 1.7 | SSC female (joint plates with papillary processes) ([4]; 9.53 mg/L measured, 21 d): 0 ± 0 | SSC male (joint plates with papillary processes) ([4]; 9.53 mg/L measured, 21 d): 79 ± 8.4 | Hepatic VTG, male ([4]; 9.53 mg/L measured, 21 d, sig. ↑ vs control): 393 ± 306 ng/mg‐liver | Fertility rate ([4]; 9.53 mg/L measured, 21 d, sig. ↓ vs control): 90 ± 3.5% | LOEC, elevated hepatic VTG in males ([4]; 21 d): 9.53 mg/L | LOECmVTG ([4]; LOEC on VTG induction in males): 9,530 μg/L | LOECREPRO ([4]; LOEC on reproduction (fecundity and/or fertility)): 9,530 μg/L | LOECREPRO (reduction in fecundity or fertility) ([4]; concentrations without overt toxicity): 9,530 μg/L | LOECTOX ([4]; lowest observed effect concentration on mortality): ND (>9,530) μg/L | GSI Female [4, 6]: 6.9 ± 0.3% | GSI Male [4, 6]: 1.07 ± 0.14% | HSI Female [4, 6]: 2.8 ± 0.87% | HSI Male [4, 6]: 1.8 ± 0.37% | Length Female [4, 6]: 30.2 ± 0.4 mm | Length Male [4, 6]: 30.8 ± 1.2 mm | Weight Female [4, 6]: 296 ± 16 mg | Weight Male [4, 6]: 291 ± 27 mg | GSI Female [4, 7]: 7.6 ± 1.2% | GSI Male [4, 7]: 0.69 ± 0.15% | HSI Female [4, 7]: 3.1 ± 0.68% | HSI Male [4, 7]: 1.9 ± 0.24% | Length Female [4, 7]: 30.3 ± 1.0 mm | Length Male [4, 7]: 30.6 ± 1.1 mm | Weight Female [4, 7]: 304 ± 48 mg | Weight Male [4, 7]: 290 ± 32 mg | GSI Female [4, 8]: 8.6 ± 0.4% | GSI Male [4, 8]: 0.79 ± 0.23% | HSI Female [4, 8]: 3.5 ± 0.58% | HSI Male [4, 8]: 2.0 ± 0.55% | Length Female [4, 8]: 30.4 ± 0.5 mm | Length Male [4, 8]: 31.9 ± 1.1 mm | Weight Female [4, 8]: 295 ± 8.0 mg | Weight Male [4, 8]: 327 ± 34 mg | Agonistic activity PC10 (medaka ARβ (mArβ) [5]; HepG2 cells, concentration with 10% of maximum activity of 11KT): PC10 = 1.2 × 10^−5 M | Agonistic activity on mArβ (in words) (medaka ARβ (mArβ) [5]; only PC10 and not EC50 could be estimated): positive agonistic activity
